Assays:
[1] = tested on: H. alvei; assay: Cadaverine inhibits gram-negative bacteria: lysine-to-cadaverine conversion after pre-incubation in cadaverine; assay type: cell-based, Hafnia alvei; conditions: 3% cadaverine for 24 hours
Method: We studied the affect of cadaverine on the gram-negative bacteria H. alvei. First, H. alvei was transformed with pCIB60 and grown for 24 hours in 50 mL LB medium with ampicillin (100 μg/mL) at 37° C. The following day, 50 mL of the seed culture was added to a 10 L jar fermenter containing […] of fermentation medium (20 g/L glucose, 30 g/L corn steep liquor, 10 g/L yeast extract, 5 g/L ammonium sulfate, 10 g/L MgSO4, 0.05 g/L FeSO4, 0.05 g/L MnSO4, 5 g/L CaCl2, 0.1 g/L ampicillin), and the fermentation proceeded for 18 hours. 10 g of fermentation broth was collected, centrifuged at 6000 rpm for 5 min at room temperature, and the biomass was recovered. 0.5 g of biomass was added to a 50 mM potassium phosphate buffer with either 0% or 3% cadaverine for 24 hours. After incubation, each sample was centrifuged at 6000 rpm for 5 min at room temperature, the biomass was recovered, and fresh potassium phosphate buffer with lysine-HCl and PLP to a final concentration of 200 g/L and 0.1 mM, respectively, was added. The initial pH of the reaction as adjusted to 5.0, and the reaction was allowed to proceed for 120 minutes at 37° C. […] The cadaverine concentration in each sample was quantified using NMR, and yield was calculated by dividing the molar amount of cadaverine produced by the molar amount of lysine added.

[2] = tested on: E. coli; conditions: Qian et al., Biotechnology and Bioengineering 108:93-103, 2010; cited from earlier work

For `NCCCCCN` [cadaverine], the “Effect of cadaverine pre-incubation on the cells' ability to convert lysine to cadaverine” value [1] is listed as “significant decrease in conversion ability” and the “Effect of cadaverine on growth of E. coli” value [2] is listed as “inhibits growth”.
